The results in this text go back to patent publication US11207312B2, “Metallo-beta-lactamase inhibitors and methods of use thereof” (priority 2017, dated 2021).

One data set deals with NDM-1 (Klebsiella pneumoniae, UniProt C7C422). The experiment in a line: biochemical. In kind it is biochemical. The settings on record: CCF2-FA fluorescence assay, 2 hours at 25° C. Summed up: (§1)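 Each enzyme (final 1 pM NDM-1, 2 pM IMP-1, 30 pM VIM-1) was incubated with test inhibitor (20 μM to 0.00063 μM) and 1.25 μM CCF2-FA for 2 hours at 25° C in zinc-supplemented phosphate buffer, pH 7. Fluorescence at 460 nm was then read and IC50 fitted with four parameters.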
Chain of NDM-1 (C7C422 whole entry, looked up, species assumed): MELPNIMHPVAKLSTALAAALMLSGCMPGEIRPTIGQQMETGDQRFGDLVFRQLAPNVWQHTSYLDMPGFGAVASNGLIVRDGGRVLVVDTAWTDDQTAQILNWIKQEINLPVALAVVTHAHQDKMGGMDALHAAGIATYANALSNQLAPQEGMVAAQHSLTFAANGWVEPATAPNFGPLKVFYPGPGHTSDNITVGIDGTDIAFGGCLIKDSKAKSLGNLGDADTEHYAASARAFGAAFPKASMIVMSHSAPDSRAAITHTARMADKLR

Another data set deals with IMP-1 (Serratia marcescens, UniProt P52699). The experiment in a line: biochemical. As to conditions: CCF2-FA fluorescence assay, 2 hours at 25° C.; read-out: IMP1 IC50. Put shortly:
as §1

For another data set, the target named is VIM-1 (Pseudomonas aeruginosa (strain ATCC 15692 / DSM 22644 / CIP 104116 / JCM 14847 / LMG 12228 / 1C / PRS 101 / PAO1), UniProt A0A0F7KYQ8). The experiment in a line: biochemical. As to conditions: CCF2-FA fluorescence assay, 2 hours at 25° C.; read-out: VIM1 IC50. Put shortly: as §1
Another data set has as its target VIM-2 (Escherichia coli, UniProt Q5U7L7). The experiment in a line: biochemical. The settings on record: CCF2-FA fluorescence assay; read-out: VIM2 IC50.
Data set [1] relates to Escherichia coli expressing NDM-1 (CLB30016). The class given is cell-based. The settings on record: with imipenem 1 μg/ml; 95% inhibition of bacterial growth. Put shortly: (§2)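 Clinical MBL-producing strains grown overnight at 35° C, diluted 1:100 into CAMHB, then exposed to test compound with imipenem at 1 μg/ml for 22–24 h at 35° C. Absorbance read-out; MITC95 is the lowest compound concentration giving 95% growth inhibition with imipenem.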

The test system of data set [2] is Klebsiella pneumoniae expressing VIM-1 (IHMA599644). The class given is cell-based. As to conditions: with imipenem 1 μg/ml; 95% inhibition of bacterial growth. Summed up:
as §2

Data set [3] concerns Serratia marcescens expressing IMP-1 (CL5741). The class given is cell-based. As to conditions: with imipenem 1 μg/ml; 95% inhibition of bacterial growth. Put shortly:
as §2

Data set [4] relates to P. aeruginosa MB9798 (efflux+, IMP-1 plasmid). As to conditions: for MB9798 MITC95 P. aeruginosa uM Efflux WT: efflux + (MB9798) strain, imipenem at 2 μg/mL, in the presence of a class A, C, D serine β-lactamase inhibitor closely related to relebactam; for Efflux ratio: fold difference between efflux+ (MB9798) and efflux− (MB9799) strains. Put shortly:
(§3)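 Isogenic P. aeruginosa PAO1 strains (efflux+ and multiple-efflux-pump-disrupted) carrying plasmid IMP-1, with inducible AmpC, tested by broth microdilution. Imipenem and/or ceftazidime fixed, usually at CLSI breakpoint, plus fixed class A/C β-lactamase inhibitor; titrated MBL inhibitor concentration restoring susceptibility recorded and compared between strains as efflux fold difference.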

Data set [5] has as its system P. aeruginosa MB9799 (efflux-, IMP-1 plasmid). The class given is cell-based, Pseudomonas aeruginosa. As to conditions: efflux − (MB9799) strain; imipenem at 2 μg/mL; in the presence of a class A, C, D serine β-lactamase inhibitor closely related to relebactam. Summed up:
as §3

Chain of IMP-1 (P52699 whole entry, looked up, species assumed): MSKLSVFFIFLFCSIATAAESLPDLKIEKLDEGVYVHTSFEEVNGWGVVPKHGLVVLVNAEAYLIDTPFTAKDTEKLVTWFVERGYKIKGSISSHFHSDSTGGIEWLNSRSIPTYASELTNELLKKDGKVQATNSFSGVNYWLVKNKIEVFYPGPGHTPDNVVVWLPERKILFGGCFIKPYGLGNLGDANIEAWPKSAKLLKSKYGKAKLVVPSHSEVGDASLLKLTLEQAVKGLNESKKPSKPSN

The IC50 is the midpoint of a concentration-inhibition curve. With `NCCCC1CCN(c2ccc(S(=O)(=O)NC[C@H](O)CN)c(S(N)(=O)=O)c2-c2nn[nH]n2)CC1` [Example 193, (R)-N1-(3-amino-2-hydroxypropyl)-4-(4-(3-aminopropyl)piperidin-1-yl)-3-(2H-tetrazol-5-yl)benzene-1,2-disulfonamide], the half-inhibitory concentration (IC50) is 0.48 nM against NDM-1, 0.67 nM on IMP-1, 0.075 nM at VIM-1 and 0.75 nM at VIM-2. The “CLB30016 E. coli MITC95 NDM” value in [1] is 1.56 µM. The “IHMA599644 K. pneumoniae MITC95 VIM” value in data set [2] is 1.56 µM. Further, in data set [3], the “CL5741 S. marcescens MITC95 IMP” value was 1.56 µM. Also, in data set [4], the “MB9798 MITC95 P. aeruginosa uM Efflux WT” value turned out to be 0.78 µM. In addition, the Efflux ratio in data set [4] is 1.00. The “MB9799 MITC95 P. aeruginosa uM Efflux Mutant” value in data set [5] was 0.78 µM.
Turning to `NC[C@@H](O)CNS(=O)(=O)c1ccc(N2CCC(N)CC2)c(-c2nn[nH]n2)c1S(N)(=O)=O` [Example 194, (R)-N1-(3-amino-2-hydroxypropyl)-4-(4-aminopiperidin-1-yl)-3-(2H-tetrazol-5-yl)benzene-1,2-disulfonamide], the IC50 against NDM-1 came out at 26.5 nM; at IMP-1, 16 nM; at VIM-1, 0.17 nM; on VIM-2, 14.9 nM. Moreover, the “CLB30016 E. coli MITC95 NDM” value in data set [1] stood at 0.39 µM. Moreover, in data set [2], the “IHMA599644 K. pneumoniae MITC95 VIM” value was determined as 0.78 µM. For the same compound, the “CL5741 S. marcescens MITC95 IMP” value in data set [3] was determined as 0.20 µM. The “MB9798 MITC95 P. aeruginosa uM Efflux WT” value in data set [4] was 0.78 µM. For the same compound, the Efflux ratio in [4] worked out at 1.00. For the same compound, in data set [5], the “MB9799 MITC95 P. aeruginosa uM Efflux Mutant” value was determined as 0.78 µM.
As for `NC[C@@H](O)CNS(=O)(=O)c1ccc(N2CC[C@H](N)[C@H](F)C2)c(-c2nn[nH]n2)c1S(N)(=O)=O` [Example 195, N1-((R)-3-amino-2-hydroxypropyl)-4-((3R,4S)-4-amino-3-fluoropiperidin-1-yl)-3-(2H-tetrazol-5-yl)benzene-1,2-disulfonamide], the IC50 on NDM-1 was determined as 1.51 nM; at IMP-1, 4.27 nM; at VIM-1, 0.14 nM; at VIM-2, 2.86 nM. Further, the “CLB30016 E. coli MITC95 NDM” value in data set [1] turned out to be 0.20 µM. In addition, in data set [2], the “IHMA599644 K. pneumoniae MITC95 VIM” value was 0.39 µM. For the same compound, the “CL5741 S. marcescens MITC95 IMP” value in [3] is 0.20 µM. For the same compound, the “MB9798 MITC95 P. aeruginosa uM Efflux WT” value in data set [4] stood at 0.78 µM. In addition, in [4], the Efflux ratio came out at 1.00. In addition, the “MB9799 MITC95 P. aeruginosa uM Efflux Mutant” value in [5] was 0.78 µM.
For the compound `NC(=O)[C@@H]1CN(c2ccc(S(=O)(=O)N[C@@H]3CCNC3)c(S(N)(=O)=O)c2-c2nn[nH]n2)CCN1` [Example 196, (S)-4-(4-(N—((R)-pyrrolidin-3-yl)sulfamoyl)-3-sulfamoyl-2-(2H-tetrazol-5-yl)phenyl)piperazine-2-carboxamide], the IC50 on NDM-1 turned out to be 0.72 nM; on IMP-1, 3.26 nM; on VIM-1, 0.44 nM; on VIM-2 it was 1.7 nM. In [1], the “CLB30016 E. coli MITC95 NDM” value stood at 0.29 µM. Moreover, in [2], the “IHMA599644 K. pneumoniae MITC95 VIM” value is 1.17 µM. Besides, the “CL5741 S. marcescens MITC95 IMP” value in data set [3] was 0.20 µM. In addition, the “MB9798 MITC95 P. aeruginosa uM Efflux WT” value in [4] was found to be 2.34 µM. For the same compound, the Efflux ratio in data set [4] was 3.00. In data set [5], the “MB9799 MITC95 P. aeruginosa uM Efflux Mutant” value amounted to 0.78 µM.
As for `NC(=O)[C@H]1CN(c2ccc(S(=O)(=O)N[C@@H]3CCNC3)c(S(N)(=O)=O)c2-c2nn[nH]n2)CCN1` [Example 197, (R)-4-(4-(N-((R)-pyrrolidin-3-yl)sulfamoyl)-3-sulfamoyl-2-(2H-tetrazol-5-yl)phenyl)piperazine-2-carboxamide], the IC50 at NDM-1 came out at 1.44 nM; on IMP-1, 9.95 nM; on VIM-1, 0.74 nM; on VIM-2, 1.89 nM. Further, the “CLB30016 E. coli MITC95 NDM” value in [1] came to 0.29 µM. Moreover, in data set [2], the “IHMA599644 K. pneumoniae MITC95 VIM” value is 1.56 µM. Besides, the “CL5741 S. marcescens MITC95 IMP” value in [3] stood at 0.39 µM. Moreover, in data set [4], the “MB9798 MITC95 P. aeruginosa uM Efflux WT” value worked out at 3.13 µM. Besides, the Efflux ratio in [4] came to 2.00. Besides, the “MB9799 MITC95 P. aeruginosa uM Efflux Mutant” value in data set [5] was 1.56 µM.
